5 compounds from ChEMBL document CHEMBL5506036, “Exploring the Structural Attributes of Yoda1 for the Development of New-Generation Piezo1 Agonist Yaddle1 as a Vaccine Adjuvant Targeting Optimal T Cell Activation” (J Med Chem, 2024) can be followed below.

Each structure is given as a SMILES string. In brackets after ≈: the same amount, converted by molar mass. Activity calls are given as the source filed them. The rule behind the calls is not given here.

A short description of data set [1]: Cytotoxicity against human PBMC cells assessed as decrease in cell viability at 20 uM incubated for 24 hrs by MTT assay. It is filed as toxicity, cell-based.
Data set [2] deals with T1, Piezo-type mechanosensitive ion channel component 1 (Homo sapiens, UniProt Q92508). Briefly: Agonist activity at human PIEZO1 overexpressing HEK293-A cells co-expressing mCherry-piezo1 assessed as fold change in calcium influx at 0.1 uM by fluo-3 based real-time flow cytometric analysis. It is filed as cell-based. Background: A flow cytometer gives signals particle by particle.

The target in data set [3] is T1, Piezo-type mechanosensitive ion channel component 1. The data set is described as follows: Agonist activity at human PIEZO1 overexpressing HEK293-A cells co-expressing mCherry-piezo1 assessed as fold change in calcium influx at 1 uM by fluo-3 based real-time flow cytometric analysis. It is filed as cell-based.
For data set [4] the target is unchanged. Briefly: Agonist activity at human PIEZO1 overexpressing HEK293-A cells co-expressing mCherry-piezo1 assessed as induction of calcium influx by fluo-3 based real-time flow cytometric analysis. The data set is classed as cell-based.
Data set [5] shares this target. Briefly: Agonist activity at human PIEZO1 overexpressing HEK293-A cells co-expressing mCherry-piezo1 assessed as fold change in calcium influx at 5 uM by fluo-3 based real-time flow cytometric analysis. It is filed as cell-based.
Data set [6] is described as follows: Cytotoxicity against human PBMC cells assessed as decrease in cell viability at 0.1 to 5 uM incubated for 6 hrs by MTT assay. The data set is classed as toxicity, cell-based. To be noted: dose 0.1-5 µM.
Data set [7] deals with T1, Piezo-type mechanosensitive ion channel component 1. The data set is described as follows: Agonist activity at PIEZO1 in human CD4+ T cell assessed as fold increase in intracellular calcium influx measured for 30 mins by flow cytometry analysis. It is filed as cell-based.
Data set [8] shares this target. The data set is described as follows: Agonist activity at human PIEZO1 overexpressing HEK293-A cells co-expressing mCherry-piezo1 assessed as fold change in calcium influx at 0.5 uM by fluo-3 based real-time flow cytometric analysis. The data set is classed as cell-based.
Data set [9] shares this target. Briefly: Agonist activity at human PIEZO1 overexpressing HEK293-A cells co-expressing mCherry-piezo1 assessed as fold change in calcium influx at 15 uM by fluo-3 based real-time flow cytometric analysis. It is filed as cell-based.
Data set [10] has the same target. Briefly: Agonist activity at human PIEZO1 overexpressing HEK293-A cells co-expressing mCherry-piezo1 assessed as fold change in calcium influx at 10 uM by fluo-3 based real-time flow cytometric analysis. It is filed as cell-based.
The nature of data set [11]: Kinetic aqueous solubility of compound in PBS at pH 7.4 measured after 24 hrs by HPLC-UV analysis. The data set is classed as physicochemical. To be noted: read-out: Kinetic_solubility.
In data set [12] the target is T1, Piezo-type mechanosensitive ion channel component 1. Briefly: Agonist activity at human PIEZO1 overexpressing HEK293-A cells co-expressing mCherry-piezo1 assessed as induction of calcium influx by measuring maximum efficacy in fold change by fluo-3 based real-time flow cytometric analysis. It is filed as cell-based. The settings on record: filed as agonist.
Data set [13] shares this target. The data set is described as follows: Agonist activity at human PIEZO1 overexpressing HEK293-A cells co-expressing mCherry-piezo1 assessed as fold change in calcium influx at 20 uM by fluo-3 based real-time flow cytometric analysis. The data set is classed as cell-based.
Data set [14] shares this target. Briefly: Agonist activity at PIEZO1 in human CD4+ T cell assessed as intracellular calcium influx measured for 30 mins by flow cytometry analysis. The data set is classed as cell-based. Background: Calcium flux is commonly read through the fluorescence of an indicator in the cells.
The target is the same in data set [15]. Briefly: Agonist activity at human PIEZO1 overexpressing HEK293-A cells co-expressing mCherry-piezo1 assessed as fold change in calcium influx at 25 uM by fluo-3 based real-time flow cytometric analysis. The data set is classed as cell-based.

T1 sequence (Q92508 whole entry): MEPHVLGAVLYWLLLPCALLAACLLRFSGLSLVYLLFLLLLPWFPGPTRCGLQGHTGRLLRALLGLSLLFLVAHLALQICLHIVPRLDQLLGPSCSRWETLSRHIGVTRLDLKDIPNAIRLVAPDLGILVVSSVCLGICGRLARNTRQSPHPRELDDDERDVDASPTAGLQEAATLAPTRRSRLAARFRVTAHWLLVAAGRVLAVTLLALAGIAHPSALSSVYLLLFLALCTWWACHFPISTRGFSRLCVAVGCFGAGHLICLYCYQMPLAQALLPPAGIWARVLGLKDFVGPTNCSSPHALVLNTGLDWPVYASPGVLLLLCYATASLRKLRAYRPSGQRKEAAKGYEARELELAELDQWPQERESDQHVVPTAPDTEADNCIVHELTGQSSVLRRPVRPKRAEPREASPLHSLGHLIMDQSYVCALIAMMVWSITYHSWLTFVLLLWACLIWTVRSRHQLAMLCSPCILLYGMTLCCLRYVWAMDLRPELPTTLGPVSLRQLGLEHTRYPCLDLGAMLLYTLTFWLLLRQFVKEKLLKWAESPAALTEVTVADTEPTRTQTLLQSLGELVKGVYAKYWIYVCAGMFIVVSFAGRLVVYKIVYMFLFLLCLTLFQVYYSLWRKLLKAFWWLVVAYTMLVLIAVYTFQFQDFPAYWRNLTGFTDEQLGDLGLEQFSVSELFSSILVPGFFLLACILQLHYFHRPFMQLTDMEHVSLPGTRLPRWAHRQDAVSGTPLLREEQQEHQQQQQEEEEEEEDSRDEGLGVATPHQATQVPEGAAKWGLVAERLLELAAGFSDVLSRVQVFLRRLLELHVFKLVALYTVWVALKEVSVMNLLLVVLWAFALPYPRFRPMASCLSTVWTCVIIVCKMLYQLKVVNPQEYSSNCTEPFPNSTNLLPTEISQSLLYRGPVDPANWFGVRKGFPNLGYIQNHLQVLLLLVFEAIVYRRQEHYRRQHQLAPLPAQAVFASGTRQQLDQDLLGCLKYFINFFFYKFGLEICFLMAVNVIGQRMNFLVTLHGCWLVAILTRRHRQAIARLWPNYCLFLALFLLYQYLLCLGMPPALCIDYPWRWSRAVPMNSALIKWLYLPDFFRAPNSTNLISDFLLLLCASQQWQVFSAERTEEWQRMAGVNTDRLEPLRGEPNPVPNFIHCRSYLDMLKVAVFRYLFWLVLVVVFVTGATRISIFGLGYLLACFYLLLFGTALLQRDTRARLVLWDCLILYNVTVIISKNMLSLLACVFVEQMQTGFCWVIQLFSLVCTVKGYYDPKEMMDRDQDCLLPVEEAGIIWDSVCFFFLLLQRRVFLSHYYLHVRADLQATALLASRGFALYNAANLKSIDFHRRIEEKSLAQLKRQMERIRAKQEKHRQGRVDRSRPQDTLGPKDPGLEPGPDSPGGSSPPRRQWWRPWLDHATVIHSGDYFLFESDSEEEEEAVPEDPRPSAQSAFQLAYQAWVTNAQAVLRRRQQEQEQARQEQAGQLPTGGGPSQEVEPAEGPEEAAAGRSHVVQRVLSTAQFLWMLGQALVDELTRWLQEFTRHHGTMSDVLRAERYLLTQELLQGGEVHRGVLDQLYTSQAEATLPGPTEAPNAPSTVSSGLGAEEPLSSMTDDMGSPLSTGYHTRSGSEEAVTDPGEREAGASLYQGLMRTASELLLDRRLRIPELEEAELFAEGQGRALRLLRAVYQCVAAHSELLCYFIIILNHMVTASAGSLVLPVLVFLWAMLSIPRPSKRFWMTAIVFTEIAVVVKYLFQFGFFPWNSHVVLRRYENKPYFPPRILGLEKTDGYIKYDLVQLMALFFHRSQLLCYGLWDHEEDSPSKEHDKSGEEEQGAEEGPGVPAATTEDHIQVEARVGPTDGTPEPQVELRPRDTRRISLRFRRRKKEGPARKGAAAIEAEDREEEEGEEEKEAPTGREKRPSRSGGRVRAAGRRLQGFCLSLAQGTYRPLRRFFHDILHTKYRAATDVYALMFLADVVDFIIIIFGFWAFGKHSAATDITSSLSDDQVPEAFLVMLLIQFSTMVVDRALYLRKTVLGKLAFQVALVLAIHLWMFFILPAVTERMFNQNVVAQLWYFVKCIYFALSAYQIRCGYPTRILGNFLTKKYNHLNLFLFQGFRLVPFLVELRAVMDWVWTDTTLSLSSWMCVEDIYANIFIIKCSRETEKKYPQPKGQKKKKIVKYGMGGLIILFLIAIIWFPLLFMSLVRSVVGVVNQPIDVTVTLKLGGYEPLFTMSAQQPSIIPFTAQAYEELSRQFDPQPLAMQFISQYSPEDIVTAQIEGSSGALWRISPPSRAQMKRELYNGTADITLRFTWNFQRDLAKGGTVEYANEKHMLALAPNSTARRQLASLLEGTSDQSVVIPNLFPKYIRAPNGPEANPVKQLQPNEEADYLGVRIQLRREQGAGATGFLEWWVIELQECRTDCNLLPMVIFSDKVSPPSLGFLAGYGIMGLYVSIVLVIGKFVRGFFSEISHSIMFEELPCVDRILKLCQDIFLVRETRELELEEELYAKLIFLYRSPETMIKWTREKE

On to `FC(F)(F)c1cccc(Cl)c1CSc1nnc(-c2cnccn2)o1`, for which the Activity entry in data set [1] and in data set [6] was “Non-Toxic” in each case. For the same compound, the fold change (FC) is over 1.2 in [2]; over 1.2 in [3]; over 1.2 in data set [5]; over 2 in [7]; over 1.2 in data set [8]; over 1.2 in [9]. In addition, the fold change (FC) in data set [10] was over 1.2; in data set [12], 2.6; in data set [13] it was over 1.2. The EC50 in data set [4] came out at 400 nM. Moreover, the solubility kinetic at 24 h in data set [11] turned out to be 26.7 µM (≈ 9.96 µg/mL).
Turning to `FC(F)(F)c1ccc(C(F)(F)F)c(CSc2nnc(-c3cnccn3)o2)c1`, the fold change (FC) in data set [2] was under 1.2; in data set [3] it was over 1.2; in [5], over 1.2; in data set [8], under 1.2; in data set [9], over 1.2; in data set [10], over 1.2. For the same compound, the results for the fold change (FC) in [12] and in data set [13] were 1.68 and over 1.2, respectively. Besides, the EC50 in [4] came to 1000 nM. Besides, the result in [14] was inactive.
With `FC(F)(F)c1ccccc1CSc1nnc(-c2cnccn2)o1`, the Activity result in data set [1] and in data set [6] was “Non-Toxic” in each case. Besides, the fold change (FC) in [2] was under 1.2; in data set [3], under 1.2; in data set [5] it was under 1.2; in [8], under 1.2; in data set [9] it was over 1.2; in data set [10] it was over 1.2. The fold change (FC) in data set [12] is 1.35; in [13] it was over 1.2. Moreover, the EC50 in data set [4] is 2060 nM. Moreover, the result in data set [14] was inactive.
With `Clc1cccc(Cl)c1CSc1nnc(-c2cnccn2)[nH]1`, the fold change (FC) in data set [9] and in [13] was under 1.2 in each case. The outcome in data set [15] was inactive.
Take `Clc1ccccc1CSc1nnc(-c2cnccn2)[nH]1`: the fold change (FC) in data set [9] and in [13] was under 1.2 in each case. The result in data set [15] was inactive.

As a reminder, the EC50 is the concentration at which the effect is half-maximal.
